US20240408170A1, “COMPOSITION FOR DECOMPOSITION OF TRYPSIN OR TMPRSS2” (Riken, priority 2021, published 2024)

Columns and labels:
recombinant mouse PRSS2 [1] = target: T1, recombinant mouse PRSS2 (Mus musculus, UniProt P07146); test: Trypsin decomposition in vitro by bacteria (western blot); format: biochemical
T1 construct: purchased Sino Biological, Inc. 50383-M08H
T1 sequence (P07146 24-246): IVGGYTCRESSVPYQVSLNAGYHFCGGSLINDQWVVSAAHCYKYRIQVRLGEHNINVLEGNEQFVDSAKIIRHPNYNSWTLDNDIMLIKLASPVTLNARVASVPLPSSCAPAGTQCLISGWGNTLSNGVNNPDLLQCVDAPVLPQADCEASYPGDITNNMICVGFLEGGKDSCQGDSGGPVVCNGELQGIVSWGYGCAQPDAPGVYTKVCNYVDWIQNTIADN
Description: (§1) Mouse faecal samples were suspended and diluted 50-fold with phosphate buffered saline (PBS) to which a protease inhibitor cocktail (Roche) was added. Subsequently, the suspended sample was centrifuged at 15,000×g for 10 minutes at 4° C., and the supernatant was subjected to western blot. Mouse pancreatic tissue was rapidly frozen in liquid nitrogen. Proteins were extracted by TRIzol Reagent (Thermo Fisher Scientific K.K.), and the final protein concentration was adjusted to 4 μg/μL. For SDS-PAGE and blotting, Novex (registered trademark) NuPAGE (registered trademark) SDS-PAGE Gel system (Thermo Fisher Scientific K.K.) and iBlot™ 2 Dry Blotting System (Thermo Fisher Scientific K.K.) were used according to the manufacturer's instructions.
(§2) The bacteria cultured overnight were incubated with recombinant mouse trypsin (final concentration: 1 μg/mL) for 1 hour or with human trypsin (final concentration: 20 μg/mL) for 4 hours. Recombinant trypsin isoforms used were as follows: recombinant mouse PRSS2 (50383-M08H, Sino Biological, Inc.), recombinant human PRSS1 (LS-G135640), recombinant human PRSS2 (LS-G20167), and recombinant human PRSS3 (His-tag) (NBP2-52220).
In some experiments, recombinant mouse PRSS2 was first treated with one of the following trypsin inhibitors for 30 minutes before incubation with a P. clara culture solution. AEBSF (Sigma-Aldrich, final concentration: 2 mM), Leupeptin (Sigma-Aldrich, final concentration: 100 μM), and TLCK (Abcam plc., final concentration: 100 μM).
In some experiments, P. clara was cultured overnight in the presence of Tunicamycin (Sigma-Aldrich, final concentration: 10 μg/mL), 2-Fluoro-L-fucose (Cayman Chemical Company, final concentration: 250 μM), or the corresponding DMSO control, before incubation with recombinant mouse PRSS2.
In the experiment of evaluating the effect of Ca^2+, P. clara was cultured in a low Ca^2+ mGAM medium supplemented with or without 1 mM of Ca^2+, before incubation with recombinant mouse PRSS2. In the experiment in which the supernatant of P. clara was used, P. clara cultured overnight was filtered through a sterilization filter unit formed using a PVDF film having a pore size of 0.22 μm.

recombinant human PRSS1 = target: T2, recombinant human PRSS1 (Homo sapiens, UniProt P07477); test: Human trypsin decomposition in vitro by P. clara (western blot); format: biochemical
T2 construct: purchased LS-G135640
Description: as §1, §2

recombinant human PRSS2 = target: T3, recombinant human PRSS2 (Homo sapiens, UniProt P07478); test: as above; format: biochemical
T3 construct: purchased LS-G20167
T3 sequence (P07478 24-247): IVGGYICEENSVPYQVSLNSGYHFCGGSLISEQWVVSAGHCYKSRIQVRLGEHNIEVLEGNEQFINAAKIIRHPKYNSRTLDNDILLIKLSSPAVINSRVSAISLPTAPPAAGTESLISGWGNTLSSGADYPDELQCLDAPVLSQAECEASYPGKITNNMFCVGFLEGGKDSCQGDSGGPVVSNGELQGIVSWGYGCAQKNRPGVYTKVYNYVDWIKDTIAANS
Description: as §1, §2

recombinant mouse PRSS2 [2] = target: T1, recombinant mouse PRSS2; test: Binding of Alexa Fluor 488-labeled rmPRSS2 to the surface of bacteria (confocal microscope)
Description: Recombinant mouse PRSS2 was labeled with Alexa Fluor™ 488 using an Alexa Fluor™ 488 Antibody Labeling Kit (Δ20181, Thermo Fisher Scientific K.K.), and was pretreated with an AEBSF inhibitor (150 μg/mL rmPRSS2 with 20 mM AEBSF).
Mouse PRSS2 labeled with Alexa Fluor™ 488 was incubated in an anaerobic chamber for 20 minutes with bacteria cultured at a final concentration of 5 μg/mL. The mixture was centrifuged, washed once with PBS, and then resuspended in PBS. A Leica TCS SP8 confocal microscope was used for capturing a confocal image.

FITC-casein substrate = test: Protease activity assay (cleavage of FITC-labeled casein); format: biochemical
Description: The protease activity of the P. clara culture solution, the P. clara culture solution supernatant, the recombinant 00502 protein, and the recombinant 005009 protein were measured using Pierce™ Fluorescent Protease Assay Kit (#23266, Thermo Fisher Scientific K.K.) according to the manufacturer's protocol.
Using PerkinElmer 2030 Multilabel Reader equipped with an excitation filter and a fluorescence filter of fluorescein (485/538 nm), an increase in total fluorescence due to digestion of the FITC-casein substrate to smaller fluorescein-labeled fragments was detected. The protease activity was measured as a change in relative fluorescence units (RFUs).

trypsin = target: T4, trypsin (Mus musculus, UniProt P07146); test: Substrate specificity: ex vivo incubation of GF mouse cecal contents with P. clara, peptidome analysis by LC-MS; format: biochemical; details: 7614 peptides derived from 276 proteins, cecal contents of GF mice
T4 construct: the anionic trypsin protease was abundantly present in the cecal contents and the faeces; from tissue; host or cells: faeces and cecal contents of germ-free / gnotobiotic mice
T4 sequence (P07146 24-246): T1 sequence (P07146 24-246)
Description: An acetonitrile (ACN) containing 0.1% trifluoroacetic acid (TFA) was added to the cecal contents and dried with a centrifugal evaporator. Acetone was added to the dried sample, and a low-molecular-weight compound that was soluble in lipids was extracted with a water bath type sonicator. Thereafter, centrifugation was performed at 15,000×g for 15 minutes at 4° C.
After removing the supernatant, 70% ACN-HCl was added to the precipitate, and the peptides were redissolved in a water bath type sonicator. Thereafter, centrifugation was performed at 15,000×g for 15 minutes at 4° C. Subsequently, the supernatant was transferred to a new tube and dried with a centrifugal evaporator. Subsequently, the dried sample was redissolved in 100 mM Tris-HCl containing a protease inhibitor, and then treated with 10 mM dithiothreitol at 50° C. for 30 minutes. Thereafter, alkylation was carried out with 30 mM iodoacetamide for 30 minutes at room temperature in a dark place. Thereafter, acidification was carried out with 0.5% trifluoroacetic acid (final concentration). The acidified sample was desalted with MonoSpin C18 (GL Sciences Inc.). […]
The peptides eluted from the column were analyzed by DDA-MS using Q Exactive HF-X (Thermo Fisher Scientific K.K.). […]

Paraprevotella clara [P. clara (strain ID: 1C4)]
reaction rate of trypsin decomposition by P. clara (recombinant mouse PRSS2 [1]): gradually occurs stoichiometrically
dependence of P. clara-mediated trypsin decomposition on divalent cations (recombinant mouse PRSS2 [1]; Ca2+): occurred only in the presence of a sufficient amount of divalent cations
decomposition of rmPRSS2 (western blot) (recombinant mouse PRSS2 [1]; bacteria or culture supernatant incubated with recombinant mouse trypsin): reduced trypsin
decomposition of human trypsin PRSS1 (western blot) (recombinant human PRSS1): can promote the reduction
decomposition of human trypsin PRSS2 (western blot) (recombinant human PRSS2): can promote the reduction
binding of rmPRSS2 to the surface of bacteria (recombinant mouse PRSS2 [2]): accumulate on the surface
protease activity (change in relative fluorescence units) (FITC-casein substrate): no proteolytic activity was detected
substrate specificity: proteins with increase in peptide concentration over time (trypsin): trypsin was only one protein that exhibited a pattern of a clear increase in peptide concentration over time
